In patent publication US8206722B2, “Somatostatin receptor antagonists and glucose control or hypoglycemia” (The Governing Council of the University of Toronto, priority 2007, dated 2012):

Columns and labels:
SSTR-2 = SSTR-2 (Homo sapiens, UniProt P30874); conditions: antagonist at SSTR-2, cited from earlier work
[1] = test system: non-diabetic and STZ-diabetic rats; assay: Insulin-induced hypoglycemic glucose clamp with SSTR antagonist infusion in non-diabetic and STZ-diabetic rats; type: in vivo, rat
Protocol: FIG. 1 indicates levels of plasma glucose levels in four groups of rats during the 1-h SSTR antagonist/saline pretreatment and 3-h hypoglycemic clamp experiment. […] A similar glycemic profile is observed in FIG. 1B when another dose of insulin and SSTR antagonist (DC-41-33) were tested (5 U/kg and 3000 nmol/kg/h, respectively).
Non-diabetic and STZ-diabetic rats were injected with insulin (10 U/kg and 5 U/kg). These doses yielded reproducible responses of plasma glucose (FIG. 1). In diabetic rats, plasma glucose is elevated approximately 3- to 4-fold before hypoglycemia is induced. A subcutaneous injection of insulin was given immediately after the sample was taken at time 0 in all groups of rats to induce hypoglycemia. Plasma glucose levels dropped to the same target hypoglycemia (2.75±0.25 mM) in both non-diabetic and diabetic rats. […] This technique of glucose clamping is a well-established method in diabetes research which allows precise comparison between different groups at a specific glycemic level.
This technique is referred to as the “glucose clamp” and is achieved by intravenously infusing glucose whenever necessary.

isolated islets = isolated islets and perifused isolated islets; reversed dose-dependently by added somatostatin; cited from earlier work
[2] = test system: isolated, perfused pancreas; conditions: perfused pancreas of non-diabetic rats; cited from earlier work
non-diabetic rats = conditions: cited from earlier work

Sequence of SSTR-2 (P30874 whole entry, species assumed, the tested form may be a part): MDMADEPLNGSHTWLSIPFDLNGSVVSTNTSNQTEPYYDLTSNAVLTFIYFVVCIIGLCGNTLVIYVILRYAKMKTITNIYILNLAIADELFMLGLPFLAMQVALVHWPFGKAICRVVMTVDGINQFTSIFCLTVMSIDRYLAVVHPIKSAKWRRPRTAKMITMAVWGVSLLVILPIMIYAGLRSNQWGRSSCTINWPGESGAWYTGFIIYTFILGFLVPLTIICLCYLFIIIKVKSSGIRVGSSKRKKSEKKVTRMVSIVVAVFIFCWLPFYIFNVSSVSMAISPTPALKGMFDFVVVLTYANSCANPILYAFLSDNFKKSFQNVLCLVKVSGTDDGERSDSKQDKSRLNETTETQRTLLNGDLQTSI

For “HFIRWF [AC-178,335, Ac-His-Phe-Ile-Arg-Trp-Phe-NH2]”, the “Affinity (nM), Units pKi” value (SSTR-2) is listed as 6.8 pKi.

In the case of “H-Cpa-cyclo[DCys-Tyr-DTrp-Lys-Thr-Cys]-Nal-NH2 (XCYWKTCX; Cpa, Nal, D-residues, cyclic disulfide, C-terminal amide; Synthetic - PRL-2970)”, the “Affinity (nM), Units pKi” value (SSTR-2) is listed as 7.6 pKi.

For “H-Cpa-cyclo[Cys-Pal-DTrp-Lys-Ile-Cys]-Nal-NH2 [PRL-2915]”, the “Affinity (nM), Units pKi” value (SSTR-2) is listed as 7.9 pKi.

In the case of “H-Fpa-cyclo[DCys-Pal-DTrp-Lys-Tle-Cys]-Nal-NH2 [DC-41-33]”, the “plasma epinephrine levels during basal infusion of antagonist” value ([1]; basal infusion before insulin, antagonist 1500 nmol/kg/h, FIG. 7) is reported as “did not affect plasma epinephrine levels”, the “growth hormone (GH) levels” value ([1]; diabetic rats, regardless of hypoglycemia, insulin 5 U/kg, antagonist 3000 nmol/kg/h, FIG. 9) is reported as “did not affect GH levels” and the “peak glucagon response to hypoglycemia, increase” value ([1]; diabetic rats, insulin 5 U/kg, antagonist 3000 nmol/kg/h, FIG. 3) is reported as ~7 fold. The “corticosterone response to hypoglycemia” value ([1]; diabetic rats, insulin 5 U/kg, antagonist 3000 nmol/kg/h, FIG. 5) was “fully normalized”, the “plasma glucagon before insulin and throughout hypoglycemia” value ([1]; diabetic rats, insulin 10 U/kg, antagonist 1500 nmol/kg/h, FIG. 2) was “glucagon was increased” and the “increase in plasma epinephrine levels (AUC) in response to hypoglycemia” value ([1]; diabetic rats, insulin 10 U/kg, antagonist 1500 nmol/kg/h, FIG. 7) was 4 fold. For the same substance, the “plasma norepinephrine during basal infusion and insulin-induced hypoglycemia” value ([1]; insulin 10 U/kg, antagonist 1500 nmol/kg/h, FIG. 8) was “no effect”, the “glucose infusion requirement during 3 h hypoglycemic clamp” value ([1]; non-diabetic and diabetic rats versus untreated controls, insulin 5 U/kg, antagonist 3000 nmol/kg/h, FIG. 6) was “less glucose infusion was necessary” and the “corticosterone response to hypoglycemia” value ([1]; non-diabetic and diabetic rats, insulin 10 U/kg, antagonist 1500 nmol/kg/h, FIG. 4) was “augmented to the same extent”. The “corticosterone response to hypoglycemia” value ([1]; non-diabetic and diabetic rats, insulin 10 U/kg, antagonist 1500 nmol/kg/h, FIG. 4, listed as SSTR2 antagonist) was “increases in the corticosterone response”, the “increase in plasma glucagon induced by insulin, with versus without antagonist” value ([1]; non-diabetic rats, insulin 10 U/kg, antagonist 1500 nmol/kg/h, FIG. 2) was 3 fold and the IC50 (SSTR-2; Units column prints pIC50, read-out: Affinity (nM), Units pIC50 (converted)) was 27.4 nM. The “glucagon secretion to an arginine stimulus” value (isolated islets) was “dose-dependently increases glucagon secretion”, the glucagon secretion [2] was “enhances glucagon secretion” and the insulin secretion [2] was “without affecting insulin secretion”. The “reversal of inhibition by GIP, GIP-(1-30)NH2 and GLP-1(7-36)NH2 of pentagastrin-stimulated gastric acid secretion” value (non-diabetic rats) was “able to reverse the inhibitory effect”.
